The values below come from PubChem BioAssay (NCI).

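Each compound was tested at five concentrations against cells in 96-well plates for 48 hours. At the TGI there is no net growth.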 *1 amine or outer side, *2 acyl side, *3 side chain or, on linkers, in order; H or OH if unused. Where a SMILES comes first, the peptide text is derived from it. [ ]: non-standard residue; d: D form. The star is where a group is joined. X31 = CC(=O)N(C)SCC(N[*:1])C(=O)[*:2]; Cbz = O=C(OCc1ccccc1)*; Bn = c1ccc(C*)cc1; For = O=C*

What all share (test): DTP human tumour cell line panel, 48 h
Test [1] concerns COLO 205 colon.
In test [2] the test system is SK-MEL-2 melanoma.
Test [3] has as its system SK-MEL-5 melanoma.

For `O=C(NC1=NCC(CN2CCN(c3ccccc3)CC2)O1)Nc1ccccc1` (stereo unspecified), the TGI in test [1], in test [2] and in test [3] was more than 100 µM each time.

For the molecule `CCOC(=O)c1cccn1S(=O)(=O)c1cc(Cl)ccc1NC(=O)CC`, the TGI in test [1] is 65.4 µM; in test [2], more than 100 µM; in test [3] it was more than 100 µM.

For the molecule `O=C(CN1CCCCC1)Nc1ccc2sc3ccccc3c(=O)c2n1`, the TGI amounted to 28.3 µM in test [1], 41 µM in test [2] and 36.1 µM in test [3].

As for `C=CCN1C(=O)/C(=C/c2ccc(OC)cc2)N=C1SC/C=C/C`, the TGI was more than 100 µM in test [1], more than 100 µM in test [2] and 39.4 µM in test [3].

`COc1ccc2[nH]cc(CCNC(=O)[C@H](Cc3ccccc3)NC(=O)[C@@H](NCC(F)(F)F)C(C)C)c2c1`: the figures for the TGI in test [1] and in test [2] were 32.3 µM and 38.3 µM, respectively.

Regarding `CC(=O)N(C)SCC(NC(=O)C(Cc1ccccc1)NC(=O)OCc1ccccc1)C(=O)NC(Cc1ccccc1)C(=O)NC(Cc1cn(C=O)c2ccccc12)C(=O)NC(CCCCNC(=O)OCc1ccccc1)C(=O)NC(C(=O)NC(CSN(C)C(C)=O)C(=O)NC(C(N)=O)C(C)OCc1ccccc1)C(C)OCc1ccccc1` (stereo unspecified) (Cbz-F[X31]FW(For)K(Cbz)T(Bn)[X31]T(Bn)-NH2; configuration not given here), the total growth inhibition concentration (TGI) in test [1] was more than 100 µM; in test [2], 28.7 µM; in test [3] it was more than 100 µM.

`Cn1c2ccccc2c2c(-c3ccccc3)cc3c(c21)C(=O)C=CC3=O`: the total growth inhibition concentration (TGI) in test [1] is 2.05 µM; in test [2], more than 7.25 µM; in test [3], more than 9.24 µM.

With `COC1=C(OC)C(=O)C(Cc2c(Cl)nc3sc(C)cn23)=C(C)C1=O`, the TGI in test [1] was determined as 34.7 µM; in test [2] it was 76.9 µM; in test [3], 23.9 µM.

As for `O=c1c2c(oc3ccccc13)-c1ccccc1OC2`, the TGI in test [2] and in test [3] was more than 100 µM each time.

Consider `CNc1ncnc2c1ncn2C1C=CC(COS(N)(=O)=O)C1` (stereo unspecified), for which the concentration for total growth inhibition (TGI) in test [1], in test [2] and in test [3] was more than 100 µM in each case.

For `CCOC(=O)c1cnc2oc3ccc(O)cc3c2c1C`, the TGI in test [1], in test [2] and in test [3] was more than 100 µM each time.

Take `COC1(OC)c2no[n+]([O-])c2CCC1O` (stereo unspecified): the TGI in test [1], in test [2] and in test [3] was more than 100 µM throughout.

With `Nc1ncnn2c(C3OC(CO)C(O)C3O)ccc12` (stereo unspecified), the total growth inhibition concentration (TGI) in test [1] was 0.762 µM; in test [2], 0.362 µM; in test [3], 0.527 µM.

Turning to `COC(=O)[C@@H]1CN(C(C)=O)C(=O)N1`, the concentration for total growth inhibition (TGI) in test [1], in test [2] and in test [3] was more than 100 µM throughout.

On to `Cn1c2ccccc2n2c(N=O)c(-c3ccccc3)nc12`, for which the concentration for total growth inhibition (TGI) in test [1] was 22.6 µM; in test [2], more than 100 µM; in test [3] it was 34.1 µM.

For `CCOC(CN(C)C(=O)Nc1cccc2ccccc12)OCC`, the TGI in test [1], in test [2] and in test [3] was more than 10 µM each time.

Take `C(=C\c1cccs1)/c1cccc(/C=C/c2cccs2)n1`: the TGI in test [1], in test [2] and in test [3] was more than 100 µM each time.

For the molecule `CCSc1[nH]c(NC(=S)NC(=O)c2ccccc2Cl)c(C(N)=O)c1C(N)=O`, the TGI in test [1] and in test [3] was more than 10 µM each time.

Regarding `O=C1/C(=C/c2cccc(F)c2)CCCc2ccccc21`, the TGI came to 36.4 µM in test [1] and 29.8 µM in test [2].

As to `C=CCNC1=C2C[C@@H](C)C[C@@H](OC)[C@H](OC(=O)CCN)[C@H](C)/C=C(\C)[C@@H](OC(N)=O)[C@H](OC)/C=C\C=C(/C)C(=O)NC(=CC1=O)C2=O`, the TGI was determined as 10.1 µM in test [1], 7.12 µM in test [2] and 17.4 µM in test [3].

Take `[N-]=[N+]=Nc1ccccc1C(=O)N1C(=O)c2ccccc2C(=O)N(C(=O)c2ccccc2N=[N+]=[N-])c2ccccc21`: the TGI in test [1], in test [2] and in test [3] was more than 100 µM throughout.

As to `O=C1/C(=C/c2cccc(Br)c2)CCc2ccccc21`, the concentration for total growth inhibition (TGI) in test [1] was found to be 40.8 µM; in test [2] it was 25.8 µM.

Regarding `Cc1ccc2c(c1)[nH]c(=S)n2/C=C1\C(=O)Oc2ccccc2C1=O`, the TGI in test [1], in test [2] and in test [3] was more than 100 µM throughout.

Take `CCOc1cc(NC(C)=O)ccc1C(=O)NN1C(=O)C(Cl)C1c1ccccc1` (stereo unspecified): the values for the TGI in test [1], in test [2] and in test [3] were 31.8 µM, 29.9 µM and 23.4 µM, respectively.

As to `CC(=O)C(=C(c1ccccc1)c1ccccc1)c1ccccc1`, the TGI in test [1] and in test [3] was more than 100 µM throughout.

On to `COC(=O)/C=C(/C)n1nc2ccccc2n1`, for which the concentration for total growth inhibition (TGI) in test [1], in test [2] and in test [3] was more than 100 µM throughout.

`Clc1ccc(NCc2nnc(CCCCCCCCc3nnc(CNc4ccc(Cl)cc4)o3)o2)cc1`: the total growth inhibition concentration (TGI) in test [1], in test [2] and in test [3] was more than 100 µM throughout.

Take `Cn1c(=O)c(Br)c(C=O)n(CCO[N+](=O)[O-])c1=O`: the values for the total growth inhibition concentration (TGI) in test [1], in test [2] and in test [3] were 26.9 µM, 15.8 µM and 23.9 µM, respectively.

Take `O=C1c2cc(Cl)ccc2-n2cnnc2C2CSCN12` (stereo unspecified): the TGI in test [1], in test [2] and in test [3] was more than 100 µM each time.

In the case of `C=CCN1C(=O)/C(=C/c2ccco2)N=C1SC/C=C/C`, the values for the concentration for total growth inhibition (TGI) in test [1], in test [2] and in test [3] were more than 100 µM, 86.4 µM and 44.3 µM, respectively.

As for `O=C(CC(=O)N(C(=O)/C=C\c1ccccc1)c1ccc(Cl)cc1)N1N=C(c2ccccc2)C(N=Nc2cccc([N+](=O)[O-])c2)C1=O` (stereo unspecified), the TGI in test [1] was 14.7 µM.

As for `COc1cc(O)c2c(=O)cc(-c3ccc(O)cc3O)oc2c1CC=C(C)C`, the TGI in test [1] came to 26.7 µM; in test [2], 39.1 µM; in test [3], 47.9 µM.

Regarding `OC1(c2cccs2)c2cccc(Cl)c2C(O)(c2cccs2)c2c(Cl)cccc21` (stereo unspecified), the total growth inhibition concentration (TGI) in test [1], in test [2] and in test [3] was more than 100 µM each time.

For orientation: TGI means the concentration at which net growth stops. Low values mean more potent growth arrest, high ones less potent growth arrest.
